Laboratory results reported in patent publication US7074789B2, “Kinase inhibitors” (Amgen Inc., priority 1999, dated 2006).

Key:
Assay type in all cases: biochemical
Lck = molecular target: T1, Lck (Homo sapiens, UniProt P06239); assay: Kinase inhibition assay (33P transfer), Lck; details: Table 3, class symbols; read-out: Lck-1
T1 construct: Kinases are expressed as either kinase domains or full length constructs; made in house
Outline: (§1)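 Steps: express kinase as GST or polyHistidine fusion in E. coli or High Five cells; optionally co-express or mix with regulatory polypeptides; incubate with 33P-ATP and plate-attached poly(Glu,Tyr) 4:1 or poly(Arg,Ser) 3:1; wash with 0.5% phosphoric acid; count by liquid scintillation.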

Zap-70 = molecular target: T2, Zap-70 (Homo sapiens, UniProt P43403); assay: Kinase inhibition assay (33P transfer), Zap-70; details: Table 3, class symbols; read-out: Zap-1
T2 construct: Kinases are expressed as either kinase domains or full length constructs; made in house
T2 sequence (P43403 1-619): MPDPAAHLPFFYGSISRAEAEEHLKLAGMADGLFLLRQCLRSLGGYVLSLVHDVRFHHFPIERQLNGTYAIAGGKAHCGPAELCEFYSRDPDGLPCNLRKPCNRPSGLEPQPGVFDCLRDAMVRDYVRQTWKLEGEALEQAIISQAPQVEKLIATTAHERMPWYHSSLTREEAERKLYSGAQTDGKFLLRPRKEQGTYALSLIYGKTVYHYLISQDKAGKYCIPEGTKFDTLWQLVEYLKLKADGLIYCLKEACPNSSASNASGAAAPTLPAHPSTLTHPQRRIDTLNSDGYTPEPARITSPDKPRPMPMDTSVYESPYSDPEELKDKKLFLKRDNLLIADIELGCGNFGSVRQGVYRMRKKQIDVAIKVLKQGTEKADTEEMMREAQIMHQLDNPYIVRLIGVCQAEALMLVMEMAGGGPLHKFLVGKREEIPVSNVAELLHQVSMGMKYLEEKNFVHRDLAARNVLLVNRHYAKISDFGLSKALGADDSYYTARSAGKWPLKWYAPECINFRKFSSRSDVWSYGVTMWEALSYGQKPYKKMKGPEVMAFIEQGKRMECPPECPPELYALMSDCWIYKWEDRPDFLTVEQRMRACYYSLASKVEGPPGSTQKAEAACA
Outline: as §1

Itk = molecular target: T3, Itk (Homo sapiens, UniProt Q08881); assay: Kinase inhibition assay (33P transfer), Itk; details: Table 3, class symbols; read-out: Itk-1
T3 construct: Kinases are expressed as either kinase domains or full length constructs; made in house
T3 sequence (Q08881 1-620): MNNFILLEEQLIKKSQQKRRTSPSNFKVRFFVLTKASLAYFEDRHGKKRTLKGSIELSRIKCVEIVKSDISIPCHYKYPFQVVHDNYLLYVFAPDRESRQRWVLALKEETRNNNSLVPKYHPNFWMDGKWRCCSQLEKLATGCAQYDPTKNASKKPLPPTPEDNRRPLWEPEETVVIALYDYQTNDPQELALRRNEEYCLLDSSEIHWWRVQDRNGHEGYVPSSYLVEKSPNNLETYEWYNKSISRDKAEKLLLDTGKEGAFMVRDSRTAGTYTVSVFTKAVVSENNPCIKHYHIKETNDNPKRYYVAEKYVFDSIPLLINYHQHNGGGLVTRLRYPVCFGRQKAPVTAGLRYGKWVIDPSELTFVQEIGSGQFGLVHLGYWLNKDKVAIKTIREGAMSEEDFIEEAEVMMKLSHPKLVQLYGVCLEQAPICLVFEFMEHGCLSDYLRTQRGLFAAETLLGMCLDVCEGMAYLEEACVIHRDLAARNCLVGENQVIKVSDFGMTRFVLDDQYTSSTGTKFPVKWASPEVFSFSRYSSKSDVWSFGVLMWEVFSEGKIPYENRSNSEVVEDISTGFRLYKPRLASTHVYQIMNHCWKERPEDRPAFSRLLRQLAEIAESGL
Outline: (§2)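 Radiometric format: recombinant tagged kinase (catalytic domain or whole protein, sometimes combined with regulatory polypeptides) phosphorylates immobilised poly(Glu,Tyr) 4:1 or poly(Arg,Ser) 3:1 using [33P]ATP. Wells are washed in 0.5% phosphoric acid, then counted. IC50 is taken where substrate labelling falls by half.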

EGFR = molecular target: T4, EGFR (Homo sapiens, UniProt P00533); assay: Kinase inhibition assay (33P transfer), EGFR; details: Table 2, class symbols A-E; read-out: EGFR-1
T4 construct: Kinases are expressed as either kinase domains or full length constructs; made in house
Outline: as §2

ErbB2 = molecular target: T5, ErbB2 (Homo sapiens, UniProt P04626); assay: Kinase inhibition assay (33P transfer), ErbB2; details: read-out: ErbB2-2
T5 construct: Kinases are expressed as either kinase domains or full length constructs; made in house
Outline: as §2

Kdr = molecular target: T6, Kdr (Homo sapiens, UniProt P35968); assay: Kinase inhibition assay (33P transfer), Kdr; details: Table 3, class symbols; read-out: KDR-1
T6 construct: Kinases are expressed as either kinase domains or full length constructs; made in house
Outline: as §1

c-Met = molecular target: T7, c-Met (Homo sapiens, UniProt P08581); assay: Kinase inhibition assay (33P transfer), c-Met; details: Table 2, class symbols A-E; read-out: Met-1
T7 construct: Kinases are expressed as either kinase domains or full length constructs; made in house
Outline: as §2

AKT = molecular target: T8, AKT (Homo sapiens, UniProt Q9Y243); assay: Kinase inhibition assay (33P transfer), AKT; details: Table 2, class symbols A-E; read-out: AKT3-1
T8 construct: Kinases are expressed as either kinase domains or full length constructs; made in house
Outline: as §1

IGFR-1 = molecular target: T9, IGFR-1 (Homo sapiens, UniProt P08069); assay: Kinase inhibition assay (33P transfer), IGFR-1; details: Table 2, class symbols A-E
T9 construct: Kinases are expressed as either kinase domains or full length constructs; made in house

PDGFRB = molecular target: T10, PDGFRB (Homo sapiens, UniProt P09619); assay: Kinase inhibition assay (33P transfer), PDGFRB; details: read-out: PDGFRB-1
T10 construct: Kinases are expressed as either kinase domains or full length constructs; made in house
T10 sequence (P09619 33-1106, species assumed): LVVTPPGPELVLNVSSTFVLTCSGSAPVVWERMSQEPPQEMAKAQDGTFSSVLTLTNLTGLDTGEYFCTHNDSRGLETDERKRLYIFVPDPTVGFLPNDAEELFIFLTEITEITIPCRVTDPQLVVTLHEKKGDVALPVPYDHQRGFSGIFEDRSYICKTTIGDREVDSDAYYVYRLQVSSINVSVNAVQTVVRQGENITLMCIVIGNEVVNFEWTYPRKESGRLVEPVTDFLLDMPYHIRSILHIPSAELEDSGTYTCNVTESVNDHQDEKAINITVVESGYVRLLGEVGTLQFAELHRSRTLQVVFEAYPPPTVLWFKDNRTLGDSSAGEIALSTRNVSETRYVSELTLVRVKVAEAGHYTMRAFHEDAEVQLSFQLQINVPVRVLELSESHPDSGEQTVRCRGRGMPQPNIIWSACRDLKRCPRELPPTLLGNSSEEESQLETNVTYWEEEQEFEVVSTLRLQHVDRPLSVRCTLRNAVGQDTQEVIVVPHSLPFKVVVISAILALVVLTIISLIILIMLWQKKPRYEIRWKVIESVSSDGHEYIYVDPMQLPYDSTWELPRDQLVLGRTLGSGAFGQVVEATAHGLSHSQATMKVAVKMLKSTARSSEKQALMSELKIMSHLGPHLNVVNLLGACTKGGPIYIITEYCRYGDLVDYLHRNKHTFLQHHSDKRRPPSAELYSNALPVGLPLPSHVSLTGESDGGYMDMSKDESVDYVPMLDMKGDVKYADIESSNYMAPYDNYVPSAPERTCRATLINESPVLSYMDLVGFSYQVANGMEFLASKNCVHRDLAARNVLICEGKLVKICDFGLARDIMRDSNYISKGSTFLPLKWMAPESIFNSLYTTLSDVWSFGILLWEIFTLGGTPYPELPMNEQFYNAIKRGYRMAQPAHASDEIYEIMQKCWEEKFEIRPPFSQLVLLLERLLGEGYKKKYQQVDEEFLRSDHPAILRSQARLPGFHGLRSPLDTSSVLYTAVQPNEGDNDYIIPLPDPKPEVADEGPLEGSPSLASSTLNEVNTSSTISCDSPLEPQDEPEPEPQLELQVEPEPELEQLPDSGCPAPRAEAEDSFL

T4 sequence (P00533 25-1210, species assumed): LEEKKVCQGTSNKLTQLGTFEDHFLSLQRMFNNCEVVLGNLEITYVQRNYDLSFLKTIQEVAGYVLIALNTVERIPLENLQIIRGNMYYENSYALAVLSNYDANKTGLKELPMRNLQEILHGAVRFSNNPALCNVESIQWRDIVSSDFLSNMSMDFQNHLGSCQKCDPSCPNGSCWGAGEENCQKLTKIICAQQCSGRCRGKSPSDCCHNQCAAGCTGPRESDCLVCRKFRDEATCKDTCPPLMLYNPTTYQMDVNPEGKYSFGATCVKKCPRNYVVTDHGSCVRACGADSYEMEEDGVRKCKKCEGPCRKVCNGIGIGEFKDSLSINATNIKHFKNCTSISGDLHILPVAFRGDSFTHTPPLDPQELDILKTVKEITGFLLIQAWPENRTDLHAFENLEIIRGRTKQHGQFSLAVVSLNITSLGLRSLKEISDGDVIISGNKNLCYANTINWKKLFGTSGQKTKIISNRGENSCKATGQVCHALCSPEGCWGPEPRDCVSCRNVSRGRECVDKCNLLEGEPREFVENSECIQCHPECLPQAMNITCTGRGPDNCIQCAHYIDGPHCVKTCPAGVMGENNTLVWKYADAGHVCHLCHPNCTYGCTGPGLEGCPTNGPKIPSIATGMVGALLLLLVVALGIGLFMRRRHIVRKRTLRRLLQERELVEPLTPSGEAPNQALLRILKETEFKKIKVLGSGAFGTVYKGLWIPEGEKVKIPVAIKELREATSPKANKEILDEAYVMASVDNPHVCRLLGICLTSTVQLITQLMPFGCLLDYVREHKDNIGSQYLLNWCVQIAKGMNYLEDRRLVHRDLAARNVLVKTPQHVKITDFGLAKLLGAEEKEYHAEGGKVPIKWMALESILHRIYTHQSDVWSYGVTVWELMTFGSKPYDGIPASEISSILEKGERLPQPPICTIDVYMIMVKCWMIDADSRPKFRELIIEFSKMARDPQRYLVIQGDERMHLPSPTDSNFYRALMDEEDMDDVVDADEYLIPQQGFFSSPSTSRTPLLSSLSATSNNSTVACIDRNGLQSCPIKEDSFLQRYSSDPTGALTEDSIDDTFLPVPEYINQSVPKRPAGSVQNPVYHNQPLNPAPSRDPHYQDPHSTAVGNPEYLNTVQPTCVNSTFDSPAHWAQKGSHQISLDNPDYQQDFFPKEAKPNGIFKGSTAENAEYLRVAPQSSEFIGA
T1 sequence (P06239 whole entry, species assumed, the tested form may be a part): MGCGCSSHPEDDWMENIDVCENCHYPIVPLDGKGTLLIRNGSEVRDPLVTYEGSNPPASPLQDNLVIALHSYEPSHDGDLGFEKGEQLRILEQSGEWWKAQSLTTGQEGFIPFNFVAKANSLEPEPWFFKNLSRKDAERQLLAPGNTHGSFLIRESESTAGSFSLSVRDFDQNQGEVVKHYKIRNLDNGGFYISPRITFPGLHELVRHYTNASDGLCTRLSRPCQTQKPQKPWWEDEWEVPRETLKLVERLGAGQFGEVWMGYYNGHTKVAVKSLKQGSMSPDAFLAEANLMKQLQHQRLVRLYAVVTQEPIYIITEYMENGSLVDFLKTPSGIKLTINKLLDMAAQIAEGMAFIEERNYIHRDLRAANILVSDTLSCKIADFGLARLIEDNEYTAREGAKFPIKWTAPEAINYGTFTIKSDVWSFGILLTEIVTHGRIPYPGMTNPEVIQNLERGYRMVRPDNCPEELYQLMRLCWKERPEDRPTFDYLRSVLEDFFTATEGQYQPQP
T6 sequence (P35968 20-1356, species assumed): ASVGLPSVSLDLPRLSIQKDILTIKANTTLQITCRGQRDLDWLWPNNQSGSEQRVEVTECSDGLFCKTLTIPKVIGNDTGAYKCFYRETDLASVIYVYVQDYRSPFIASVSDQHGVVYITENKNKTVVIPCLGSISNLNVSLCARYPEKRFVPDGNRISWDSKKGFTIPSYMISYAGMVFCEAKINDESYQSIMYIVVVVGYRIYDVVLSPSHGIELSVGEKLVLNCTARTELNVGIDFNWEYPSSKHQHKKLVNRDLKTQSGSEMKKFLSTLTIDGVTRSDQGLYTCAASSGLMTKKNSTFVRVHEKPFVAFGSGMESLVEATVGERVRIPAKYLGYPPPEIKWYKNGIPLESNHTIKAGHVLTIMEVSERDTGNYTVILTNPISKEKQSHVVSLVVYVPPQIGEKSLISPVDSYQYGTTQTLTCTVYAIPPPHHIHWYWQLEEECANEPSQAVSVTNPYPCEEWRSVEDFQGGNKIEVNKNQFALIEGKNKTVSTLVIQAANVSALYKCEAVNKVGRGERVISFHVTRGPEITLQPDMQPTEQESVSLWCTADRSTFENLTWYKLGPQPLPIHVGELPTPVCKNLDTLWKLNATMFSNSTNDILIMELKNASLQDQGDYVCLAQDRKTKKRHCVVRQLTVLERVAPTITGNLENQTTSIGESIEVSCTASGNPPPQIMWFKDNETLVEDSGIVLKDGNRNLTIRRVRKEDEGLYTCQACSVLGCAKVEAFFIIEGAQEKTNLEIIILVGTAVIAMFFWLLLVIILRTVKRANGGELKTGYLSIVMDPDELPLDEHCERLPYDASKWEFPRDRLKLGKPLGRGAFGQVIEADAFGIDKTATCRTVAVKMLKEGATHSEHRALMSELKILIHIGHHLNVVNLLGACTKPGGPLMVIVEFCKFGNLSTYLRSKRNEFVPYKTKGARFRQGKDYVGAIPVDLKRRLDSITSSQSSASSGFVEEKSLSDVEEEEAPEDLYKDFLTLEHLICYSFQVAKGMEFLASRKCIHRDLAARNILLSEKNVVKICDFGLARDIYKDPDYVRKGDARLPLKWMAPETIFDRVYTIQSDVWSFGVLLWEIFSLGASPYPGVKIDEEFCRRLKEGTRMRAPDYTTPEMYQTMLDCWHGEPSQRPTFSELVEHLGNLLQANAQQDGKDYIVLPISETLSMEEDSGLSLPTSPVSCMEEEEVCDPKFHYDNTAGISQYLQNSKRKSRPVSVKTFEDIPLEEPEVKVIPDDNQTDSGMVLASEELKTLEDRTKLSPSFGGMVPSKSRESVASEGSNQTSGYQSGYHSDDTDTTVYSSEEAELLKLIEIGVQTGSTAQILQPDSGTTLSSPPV
T8 sequence (Q9Y243 whole entry, the tested form may be a part): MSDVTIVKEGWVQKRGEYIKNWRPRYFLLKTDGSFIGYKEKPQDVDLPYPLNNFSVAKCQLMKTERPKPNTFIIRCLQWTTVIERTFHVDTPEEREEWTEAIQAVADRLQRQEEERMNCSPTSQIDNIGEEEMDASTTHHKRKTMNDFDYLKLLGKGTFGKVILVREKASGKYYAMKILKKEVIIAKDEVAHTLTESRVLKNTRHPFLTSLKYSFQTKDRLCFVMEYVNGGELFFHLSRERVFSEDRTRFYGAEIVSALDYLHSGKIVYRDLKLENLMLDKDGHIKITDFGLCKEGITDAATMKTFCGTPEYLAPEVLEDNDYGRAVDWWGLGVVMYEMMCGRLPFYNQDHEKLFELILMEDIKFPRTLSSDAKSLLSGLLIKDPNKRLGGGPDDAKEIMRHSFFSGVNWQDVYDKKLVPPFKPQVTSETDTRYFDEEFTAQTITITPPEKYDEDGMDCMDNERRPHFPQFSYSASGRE

Row | Structure (SMILES) | IC50 (Lck) [µM] | IC50 (Zap-70) [µM] | IC50 (Itk) [µM] | IC50 (EGFR) [µM] | IC50 (ErbB2) [µM] | IC50 (Kdr) [µM] | IC50 (c-Met) [µM] | IC50 (AKT) [µM] | IC50 (IGFR-1) [µM] | IC50 (PDGFRB) [µM]
1 | CN(c1ccc2c(cnn2Cc2ccccc2)c1)c1ncnc(Nc2cccc(Cc3nnn[nH]3)c2)n1 [Compound 671] | 7.15 to 9.19 | > 9.19 | 7.15 to 9.19 | < 0.817 | < 0.817 | 0.817 to 4.9 | < 0.817 | > 9.19 | 4.9 to 7.15 | 0.817 to 4.9
2 | O=C(O)c1cccc(Nc2ncnc(-n3c(NCc4ccccc4)nc4ccccc43)n2)c1 [Compound 1069] | > 10.3 | > 10.3 | > 10.3 | < 0.914 | < 0.914 | < 0.914 | > 10.3 | > 10.3 | > 10.3 | < 0.914
3 | COc1cc(Nc2ncnc(-c3cccnc3Nc3ccc(C(C)=O)cc3)n2)cc(OC)c1OC [Compound 832] | > 9.52 | > 9.52 | > 9.52 | > 9.52 | > 9.52 | 0.847 to 5.08 | 0.847 to 5.08 | > 9.52 | > 9.52 | > 9.52
4 | CC(C)Nc1ncccc1-c1ncnc(Nc2cccc(CC(=O)O)c2)n1 [Compound 1097] | 1.1 to 6.59 | 6.59 to 9.6 | > 12.3 | > 12.3 | > 12.3 | 1.1 to 6.59 | 6.59 to 9.6 | > 12.3 | > 12.3 | < 1.1
5 | CN(c1cccc(Cl)c1)c1ncnc(Nc2ccc3nn(Cc4ccccc4)cc3c2)n1 [Compound 673] | 5.43 to 7.92 | 7.92 to 10.2 | > 10.2 | < 0.905 | 5.43 to 7.92 | 5.43 to 7.92 | 0.905 to 5.43 | > 10.2 | > 10.2 | 0.905 to 5.43
6 | COc1cc(Nc2ncnc(-c3cccnc3Nc3ccc(Cl)cc3C)n2)cc(OC)c1OC [Compound 834] | > 9.4 | > 9.4 | > 9.4 | > 9.4 | > 9.4 | 0.835 to 5.01 | > 9.4 | > 9.4 | > 9.4 | < 0.835
7 | COC(=O)c1ccc(-c2cc(Nc3ncnc(NCc4ccccc4F)n3)[nH]n2)cc1 [Compound 814] | > 10.7 | > 10.7 | > 10.7 | > 10.7 | > 10.7 | > 10.7 | > 10.7 | > 10.7 | > 10.7 | 0.954 to 5.72
8 | COc1ccc(Nc2ncnc(N(C)c3ccc(C)cc3)n2)cc1OC [Compound 799] | 1.14 to 6.83 | > 12.8 | > 12.8 | < 1.14 | 1.14 to 6.83 | 1.14 to 6.83 | 1.14 to 6.83 | > 12.8 | 1.14 to 6.83 | 1.14 to 6.83
9 | COc1cc(Nc2ncnc(-c3cccnc3Nc3cccc(Oc4ccccc4)c3)n2)cc(OC)c1OC [Compound 840] | > 8.61 | > 8.61 | > 8.61 | > 8.61 | 0.765 to 4.59 | 4.59 to 6.7 | > 8.61 | > 8.61 | > 8.61 | 0.765 to 4.59
10 | COC(=O)c1ccc(-c2cc(Nc3ncnc(NCCN4CCOCC4)n3)[nH]n2)cc1 [Compound 808] | > 10.6 | > 10.6 | > 10.6 | 5.65 to 8.25 | > 10.6 | > 10.6 | > 10.6 | > 10.6 | > 10.6 | 0.942 to 5.65
11 | COc1cc(Nc2ncnc(Nc3cc(-c4ccco4)[nH]n3)n2)cc(C(F)(F)F)c1 [Compound 821] | 0.958 to 5.75 | 0.958 to 5.75 | 0.958 to 5.75 | 0.958 to 5.75 | 0.958 to 5.75 | 0.958 to 5.75 | 0.958 to 5.75 | 5.75 to 8.39 | 0.958 to 5.75 | 0.958 to 5.75
